Assays:
[1] = target: T1, PGC-1α (Mus musculus, UniProt O70343); experiment: Mass spectrometry of acetylated PGC-1α lysine residues; type: cell-based; parameters: expressed in transfected cells; host or cells: U-2 OS cells infected with Ad-PGC-1α and Ad-GCN5; conditions: U-2 OS, Ad-PGC-1α and Ad-GCN5, 18 h
T1 sequence (O70343 1-797): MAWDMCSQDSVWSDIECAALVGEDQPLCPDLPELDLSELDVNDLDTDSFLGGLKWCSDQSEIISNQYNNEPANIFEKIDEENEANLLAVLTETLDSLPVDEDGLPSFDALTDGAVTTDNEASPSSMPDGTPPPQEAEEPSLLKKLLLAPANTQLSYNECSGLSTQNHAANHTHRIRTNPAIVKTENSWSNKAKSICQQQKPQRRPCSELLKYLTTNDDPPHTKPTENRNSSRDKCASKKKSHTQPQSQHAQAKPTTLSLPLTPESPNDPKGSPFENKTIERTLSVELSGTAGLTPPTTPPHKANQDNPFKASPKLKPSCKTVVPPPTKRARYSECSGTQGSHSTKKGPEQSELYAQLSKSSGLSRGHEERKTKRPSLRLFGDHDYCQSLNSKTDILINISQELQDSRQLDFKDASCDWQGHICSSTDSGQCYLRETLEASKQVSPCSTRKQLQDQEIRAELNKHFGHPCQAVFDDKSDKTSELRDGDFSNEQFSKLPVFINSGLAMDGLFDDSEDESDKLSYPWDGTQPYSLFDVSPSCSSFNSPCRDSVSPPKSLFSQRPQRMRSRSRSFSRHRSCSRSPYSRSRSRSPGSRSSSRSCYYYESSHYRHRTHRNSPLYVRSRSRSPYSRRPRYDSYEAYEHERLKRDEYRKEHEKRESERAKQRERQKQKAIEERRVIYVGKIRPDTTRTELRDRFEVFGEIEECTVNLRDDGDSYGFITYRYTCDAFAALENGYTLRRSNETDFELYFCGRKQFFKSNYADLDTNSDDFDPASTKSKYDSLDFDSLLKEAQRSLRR
Method: Gel bands were dehydrated with acetonitrile, dried and resuspended in 50 mM ammonium bicarbonate (pH 8.0) containing 500 ng of sequencing-grade trypsin (Promega) and incubated at 37° C. for 8 hours. Digested samples were then loaded onto StageTips and desalted. Peptides were eluted with 50% acetonitrile, 5% formic acid, dried using a Speed-Vac apparatus, and resuspended in 25 μl of HEPES, pH 8.5. Peptides were labeled with 6-plex tandem mass tag (TMT) reagents (Thermo Scientific, Rockford, Ill.). After 1 hour of incubation at room temperature, the reaction was quenched with hydroxylamine and acidification with formic acid to pH˜2. TMT labeled peptides were combined, desalted by StageTips, dried and resuspended in 10 μl of 1% formic acid. All spectra were acquired using an Oribtrap Fusion mass spectrometer (Thermo Scientific) in line with an Easy-nLC 1200 (Thermo Fisher Scientific) ultra-high pressure liquid chromatography (UHPLC) pump. […] For MS3 based TMT quantitation, MS2 spectra were collected at an AGC of 4000, max injection time of 150 ms, and CID collision energy set at 35%. […] For quantification, a 0.03 m/z window centered on the theoretical DA value of each reporter ion was utilized for the nearest maximal signal intensity. […]

[2] = tested on: HFD-fed mice; experiment: Hyperinsulinemic-euglycemic clamp; type: in vivo
Method: Hyperinsulinemic-euglycemic clamps were performed on mice fed HFD for 16 weeks as previously described with minor modifications (Jurczak et al., 2012). Briefly, an indwelling catheter was surgically implanted in the right jugular vein 7 days prior to study. Three days before study, mice were injected with SR-18292 and vehicle control following the same protocol described above. Mice were fasted overnight prior to clamps and then infused with a fixed amount of insulin [4 mU/(kg-min)] and a variable amount of 20% dextrose to maintain euglycemia. [3-H]glucose was included in the infusate to allow for the calculation of whole-body rates of glucose metabolism.

## Cc1ccc(CN(CC(O)COc2cccc3[nH]ccc23)C(C)(C)C)cc1 (stereo not shown) [SR-18292, 1-((1H-indol-4-yl)oxy)-3-(tert-butyl(4-methylbenzyl)amino)propan-2-ol]
[1]
  number of PGC-1α lysine residues with increased acetylation: 7
[2]; HFD 16 weeks
  glucose infusion rate vs vehicle: substantially higher
  peripheral glucose uptake: not due to improved peripheral glucose uptake
[2]; basal and clamp conditions
  endogenous glucose production: reduced endogenous glucose production
